Laboratory results taken from US4833268A, “Threo-adrenalinecarboxylic acid, and the production and uses thereof” (Zaidan Hojin Biseibutsu Kagaku Kenkyu Kai, priority 1982, dated 1989).
Like-named read-outs stand apart in the source and are kept apart here.

Assays:
[1] = type: in vivo, mice; conditions: 500 mg/kg i.p., whole brain 90 minutes after administration
harmaline-induced tremor = assay: Test 1: inhibitory activity against harmaline-induced tremor; type: in vivo, ddY-strain mice; conditions: for Reduction (%) in the duration of tremor action: 30 minutes before harmaline 10 mg/kg i.p., relative to harmaline-only control
Method: This test was made according to one usual method for screening antiparkinsonian drugs which determines inhibitory activity against harmaline-induced tremor.
ddY-strain Mice (male, body weight 20-30 g, five in each group) were used as test animal for respective tests. The new compound, DL-threo-adrenalinecarboxylic acid according to this invention, was intraperitoneally administered to each of the mice at a dosage of 400 mg/kg or […], and after the lapse of 30 minutes harmaline was also intrapenitoneally injected to the same mice at a dosage of 10 mg/kg. Then, the duration of tremor action as induced in the mice under test was observed and recorded. The rate (percentage) of reduction in the duration of tremor action in relation to the control group of mice to which only harmaline was administered in the same dosage was calculated by the equation given below. By way of comparison DL-threo-3-(3,4-dihydroxyphenyl)serine (i.e. DL-threo-DOPS) in a dosage of 400 mg/kg was tested in the same manner as above. [formula]

Test 4: acute toxicity = conditions: i.p., 0.5 ml per mouse of 20 mg/ml suspension in 0.5% CMC
Method: This test is carried out to examine acute toxicity of the DL-threo-adrenalinecarboxylic acid.
To DDB4-strain mice (male, body weight 23-28 g, six in each group) was intraperitoneally administered at a dosage of 0.5 ml per mouse a suspension containing 20 mg/ml of DL-threo-adrenalinecarboxylic acid dispersed in an aqueous solution of 0.5% carboxymethylcellulose (CMC). The mice were then raised under normal conditions for 7 days after the administration of the compound. During these 7 days, the mice were observed and estimated with regard to their body weight, the quantity of feedstock and the quantity of water which were taken by the mice.

[2] = tested on: reserpine-induced decrease in the body temperature; assay: Test 2: inhibition of reserpine-induced decrease in body temperature (reserpine 4 mg/kg i.p.); type: in vivo, ddY-strain mice; conditions: for Body Temperature (°C.) 1 Hour after / Body Temperature (°C.) 2 Hours after: given 24 hours after reserpine 4 mg/kg i.p.
Method: ddY-strain Mice (male, body weight 20-30 g, five in each group) were used as the test animal for respective tests. Reserpine was intraperitoneally administered to each mouse at a dose of 4 mg/kg. 24 Hours later, the decreased body temperature of the mice was observed and recorded. After this, 1500 mg/kg or 2000 mg/kg of DL-threo-adrenalinecarboxylic acid was intraperitoneally administered to each of the mice having received reserpine. At the end of 1 hour and at the end of 2 hours after the administration of the DL-threo-adrenalinecarboxylic acid, the body temperature of these treated mice was determined and shown in Table 3 below.

[3] = tested on: reserpine-induced decrease in the body temperature and muscular rigidity; assay: Test 3: reserpine-induced decrease in body temperature and muscular rigidity (reserpine 2.5 mg/kg s.c.); type: in vivo, ddY-strain mice; conditions: for Body Temperature (°C.) (Average ± Standard deviation) 24 Hours after administration of reserpine: 800 mg/kg group, 24 hours after reserpine 2.5 mg/kg s.c., before test compound; for Body Temperature (°C.) (Average ± Standard deviation) 1 Hour after administration of adrenaline carboxylic acid / Muscular Rigidity: number of mice exhibiting significant improvement in the muscular rigidity per the total number of mice in each group: given 24 hours after reserpine 2.5 mg/kg s.c.; for Body Temperature (°C.) (Average ± Standard deviation) Before administration of reserpine: baseline of the 800 mg/kg group, before reserpine and before test compound
Method: After this, 800 mg/kg of L-threo-adrenalinecarboxylic acid or 800 mg/kg of D-threo-adrenalinecarboxylic acid or DL-threo-adrenalinecarboxylic acid synthetized according to this invention was intraperitoneally administered to the mice having received reserpine. One hour after the administration of the threo-adrenalinecarboxylic acid, the body temperature of the treated mice was determined. Estimation was also made about whether the muscular rigidity as induced by reserpine was improved by the administration of the threo-adrenalinecarboxylic acid of this invention.

[4] = cited from earlier work; for levels of noradrenaline in heart and brain: intraperitoneal administration of high dosages; for accumulation of noradrenaline in brain: after intraperitoneal administration, rats; for decarboxylation in vivo, leading to accumulation of noradrenaline in heart: intraperitoneally administered in rats
[5] = Test 7: in vitro decarboxylation by supernatant of mouse whole brain homogenate; conditions: mouse, brain homogenate supernatant, pH 8
Method: (§1) The whole brains of mice of ddY-strain were homogenized and the resulting brain homogenate was diluted with the same volume of a buffere solution (comprising 50 mM Tris-HCl (pH 8.6, 1.5 mM EDTA.2Na); 0.5 mM Pridoxal-5-Phosphate; 1 mM Nialamide; and 0.85 mM L-ascorbic acid), and the mixture was centrifuged at 10,000 g to give a supernatant liquid containing the brain enzymes. To this supernatant liquid (500 μl) was added a solution containing 4.5 mM of a substrate selected from L-threo-adrenalinecarboxylic acid, L-threo-DOPS and L-DOPA. The mixture obtained (pH ca. 8, 1.0 ml) was incubated for 30 minutes at 37° C., followed by quantitative determination of adrenaline, noradrenaline or dopamine formed as the reaction product catecholamine.
(§2) The determination of the catecholamine as produced (adrenaline, noradrenaline or […]) was made according to the following procedure: Thus, the incubated mixture was admixed with aqueous 6% perchloric acid (PCA) for stopping the enzymatic reactions, and the reaction solution so obtained was de-salted by adding thereto potassium carbonate to precipitate the potassium perchlorate, and removing the precipitate by filtration. The de-salted reaction solution was passed through a column of Amberlite CG-50 as developed with 250 μl of 2N-PCA solution and then with 250μl of water. The eluate was analyzed by a high performance liquid chromatography under the following conditions:
(§3) Mobile Phase: 0.1M Citrate buffer (pH 4.3)-methanol(9:1) containing 0.0025M 1-octane sulfonic acid sodium salt
(§4) Column temperature: 40° C.
(§5) Applied voltage: 600 mV vs. Ag/AgCl.
(§6) The yield of the catecholamine as formed was calculated in term of percentages based on the quantity of the substrate charged, and this calculated yield denotes the rate of decarboxylation of the substrate compound (in %).

[6] = tested on: brain enzymes (homogenate of the whole brains of mice); assay: as above
Method: as §1, §2, §3, §4, §5, §6

[7] = Test 6: brain concentration of 14C-labelled compound after intravenous administration; type: in vivo, C57 Black-strain mice; conditions: administered intraperitoneally or intravenously in mice
Method: After a last injection of heparin, the treated mice were anesthetized with ethylether and the breast opened surgically. The blood was withdrawn from the heart and the lower portion of the heart ventricle was cut off. A catheter was inserted at the ventricle into the artery and fixed by means of binding threads. The two veins at the neck were opened surgically, and immediately physiological saline was injected through said catheter so that the remaining blood was entirely withdrawn at the opened veins together with the washing saline. The whole brain was removed from the sacrificed mouse, and the whole brain was dried in air at ambient temperature overnight.

In the case of `N[C@H](C(=O)O)[C@H](O)c1ccc(O)c(O)c1` (relative stereo) [DL-threo-DOPS, DL-threo-3-(3,4-dihydroxyphenyl)serine, reference compound], the “Quantity (as average) of the administered compound present in brain” value [1] is reported as “Not detectable” and the “Reduction (%) in the duration of tremor action” value (from here on “Reduction (%) in the duration”) (harmaline-induced tremor; 400 mg/kg i.p.) is reported as 26%.

With `CN[C@H](C(=O)O)[C@H](O)c1ccc(O)c(O)c1` (relative stereo) [DL-threo-adrenalinecarboxylic acid, DL-threo-3-(3,4-dihydroxyphenyl)-N-methylserine] the “Quantity (as average) of the administered compound present in brain” value [1] was 2.0 n mole/g, the “Quantity (as average) of adrenaline in brain” value ([1]; not administered: 0.37 n mole/g) was 0.44 n mole/g and the “acute toxicity: body weight, quantity of feedstock and quantity of water taken, treated vs control group” value (Test 4: acute toxicity; 7 days observation) was “No diference could be detected”. The “acute toxicity: anatomical examination, organ weights, bio-chemical tests of blood, tissue-pathological tests, treated vs control group” value (Test 4: acute toxicity; after 7 days) was “no significant difference existed”, the “Reduction (%) in the duration” value (harmaline-induced tremor; 400 mg/kg i.p.) was 34% and the “Reduction (%) in the duration” value (harmaline-induced tremor; 600 mg/kg i.p.) was 37%. The “reduction in duration of tremor action, comparison in words” value (harmaline-induced tremor; i.p., harmaline 10 mg/kg) was “significantly superior to DL-threo-DOPS”, the “Body Temperature (°C.) 1 Hour after” value ([2]; 1500 mg/kg i.p.) was 32.9 °C and the “Body Temperature (°C.) 2 Hours after” value ([2]; 1500 mg/kg i.p.) was 32.6 °C. The “Body Temperature (°C.) 1 Hour after” value ([2]; 2000 mg/kg i.p.) was 34.0 °C, the “Body Temperature (°C.) 2 Hours after” value ([2]; 2000 mg/kg i.p.) was 32.5 °C and the “effect on reserpine-induced decrease in body temperature, in words” value ([2]; 1500 or 2000 mg/kg i.p., compared to control mice receiving reserpine only) was “inhibited the reserpine-induced decrease in the body temperature”. For the same molecule, the “Body Temperature (°C.) (Average ± Standard deviation) 24 Hours after administration of reserpine” value [3] was 34.9 ± 0.7 °C, the “Body Temperature (°C.) (Average ± Standard deviation) 1 Hour after administration of adrenaline carboxylic acid” value ([3]; 800 mg/kg i.p.) was 36.9 ± 0.3 °C and the “Muscular Rigidity: number of mice exhibiting significant improvement in the muscular rigidity per the total number of mice in each group” value ([3]; 800 mg/kg i.p.) was 0/5. The “Body Temperature (°C.) (Average ± Standard deviation) Before administration of reserpine” value [3] was 39.1 ± 0.2 °C.

For `N[C@@H](C(=O)O)[C@H](O)c1ccc(O)c(O)c1` [D-erythro-DOPS], the “levels of noradrenaline in heart and brain” value [4] is listed as “slight increase”.

In the case of `N[C@@H](C(=O)O)[C@@H](O)c1ccc(O)c(O)c1` [D-threo-DOPS], the “levels of noradrenaline in heart and brain” value [4] is listed as “slight increase”.

In the case of `CN[C@@H](C(=O)O)[C@@H](O)c1ccc(O)c(O)c1` [D-threo-adrenalinecarboxylic acid], the “Body Temperature (°C.) (Average ± Standard deviation) 24 Hours after administration of reserpine” value [3] is reported as 36.0 ± 0.5 °C, the “Body Temperature (°C.) (Average ± Standard deviation) 1 Hour after administration of adrenaline carboxylic acid” value ([3]; 800 mg/kg i.p.) is reported as 35.9 ± 0.5 °C and the “Muscular Rigidity: number of mice exhibiting significant improvement in the muscular rigidity per the total number of mice in each group” value ([3]; 800 mg/kg i.p.) is reported as 0/5. The “Body Temperature (°C.) (Average ± Standard deviation) Before administration of reserpine” value [3] was 38.9 ± 0.2 °C.

In the case of `N[C@@H](Cc1ccc(O)c(O)c1)C(=O)O` [L-DOPA, L-3,4-dihydroxyphenylalanine], the metabolised at 0.5 h, 4500 µM [5] is reported as > 11.7%.

In the case of `N[C@H](C(=O)O)[C@@H](O)c1ccc(O)c(O)c1` [L-erythro-DOPS], the “accumulation of noradrenaline in brain” value [4] is listed as “significant” and the “decarboxylation in vivo, leading to accumulation of noradrenaline in heart” value [4] is listed as “readily decarboxylated in vivo”.

In the case of `N[C@H](C(=O)O)[C@H](O)c1ccc(O)c(O)c1` [L-threo-DOPS, L-threo-3-(3,4-dihydroxyphenyl)serine], the “decarboxylation in vitro by homogenate of whole brains of mice, in words” value [6] is listed as “can be decarboxylated into noradrenaline”, the metabolised at 0.5 h, 4500 µM [5] is listed as > 0.52% and the “accumulation of natural (l)-noradrenaline in the brain” value ([4]; after direct injection into a cerebral ventricle) is listed as “marked”. For the same molecule, the “accumulation of noradrenaline in brain” value [4] was “negligible” and the “decarboxylation in vivo, leading to accumulation of noradrenaline in heart” value [4] was “readily decarboxylated in vivo”.

In the case of `CN[C@H](C(=O)O)[C@H](O)c1ccc(O)c(O)c1` [L-threo-adrenalinecarboxylic acid, L-threo-3-(3,4-dihydroxyphenyl)-N-methylserine], the “decarboxylation in vitro by homogenate of whole brains of mice, in words” value ([6]; in vitro, mouse whole brain homogenate) is reported as “can hardly be decarboxylated into adrenaline”, the metabolised at 0.5 h, 4500 µM [5] is reported as < 0.00031% and the “penetration through the blood-brain barrier, in words” value [7] is reported as “can surprisingly penetrate and transfer through the blood-brain barrier into the brain”. The “Body Temperature (°C.) (Average ± Standard deviation) 24 Hours after administration of reserpine” value [3] was 35.4 ± 0.4 °C, the “effect on reserpine-induced decrease in body temperature, in words” value ([3]; 800 mg/kg i.p.) was “remarkably inhibits the reserpine-induced decrease in the body temperature” and the “effect on reserpine-induced muscular rigidity, in words” value ([3]; 800 mg/kg i.p.) was “remarkably improves (eliminates or weakens) the muscular rigidity”. For the same molecule, the “Body Temperature (°C.) (Average ± Standard deviation) 1 Hour after administration of adrenaline carboxylic acid” value ([3]; 800 mg/kg i.p.) was 38.7 ± 0.5 °C, the “Muscular Rigidity: number of mice exhibiting significant improvement in the muscular rigidity per the total number of mice in each group” value ([3]; 800 mg/kg i.p.) was 5/5 and the “Body Temperature (°C.) (Average ± Standard deviation) Before administration of reserpine” value [3] was 39.0 ± 0.2 °C.
